Source: ChEMBL document CHEMBL1201862, “PubChem BioAssay data set” (2004)
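Step 1: Grow cells in 96-well plates. Step 2: Expose to compound for 48 hours at 5 concentrations. Step 3: Interpolate endpoints linearly; if unreached, use highest concentration. GI50 marks 50% less growth.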 Activity calls are given as the source filed them. Cut-off read from the data, not from the text of the source: active = GI50 up to about 1.1 µM and inactive = higher.

Legend:
Assay in all cases: NCI anticancer screen, dose series, 48 h
HCT-15 = test system: HCT-15
OVCAR-4 = test system: OVCAR-4
A498 = test system: A498
K562 = test system: K562
SF-295 = test system: SF-295
DU-145 = test system: DU-145
NCI-H460 = test system: NCI-H460
NCI-H23 = test system: NCI-H23
COLO 205 = test system: COLO 205
TK-10 = test system: TK-10
MOLT-4 = test system: MOLT-4
NCI-H522 = test system: NCI-H522
SF-268 = test system: SF-268
MCF7 = test system: MCF7
OVCAR-5 = test system: OVCAR-5
UACC-62 = test system: UACC-62
PC-3 = test system: PC-3
HT-29 = test system: HT-29
CAKI-1 = test system: CAKI-1
RPMI-8226 = test system: RPMI-8226
NCI-H226 = test system: NCI-H226
A549 = test system: A549
HOP-92 = test system: HOP-92
SN12C = test system: SN12C
EKVX = test system: EKVX
SK-MEL-2 = test system: SK-MEL-2
786-0 = test system: 786-0
NCI/ADR-RES = test system: NCI/ADR-RES
HCC 2998 = test system: HCC 2998
IGROV-1 = test system: IGROV-1
BT-549 = test system: BT-549
U-251 = test system: U-251
MDA-MB-231 = test system: MDA-MB-231
SW-620 = test system: SW-620
HCT-116 = test system: HCT-116
MDA-MB-435 = test system: MDA-MB-435
Malme-3M = test system: Malme-3M
MDA-N = test system: MDA-N
UACC-257 = test system: UACC-257
RXF 393 = test system: RXF 393
SNB-75 = test system: SNB-75
OVCAR-8 = test system: OVCAR-8
SF-539 = test system: SF-539
SK-MEL-28 = test system: SK-MEL-28
LOX IMVI = test system: LOX IMVI
UO-31 = test system: UO-31
M14 = test system: M14
SNB-19 = test system: SNB-19
SK-MEL-5 = test system: SK-MEL-5
KM12 = test system: KM12
Hs-578T = test system: Hs-578T
SK-OV-3 = test system: SK-OV-3
T47D = test system: T47D
HOP-62 = test system: HOP-62
SR = test system: SR
ACHN = test system: ACHN
OVCAR-3 = test system: OVCAR-3
CCRF-CEM = test system: CCRF-CEM
HL-60 = test system: HL-60

## NCCNCC1CCNCC1
HCT-15
  GI50: > 100000 nM
OVCAR-4
  GI50: > 100 µM (inactive)
A498
  GI50: > 100 µM (inactive)
K562
  GI50: > 100 µM (inactive)
SF-295
  GI50: > 100 µM (inactive)
DU-145
  GI50: > 100 µM (inactive)
NCI-H460
  GI50: > 100 µM (inactive)
NCI-H23
  GI50: > 100 µM (inactive)
COLO 205
  GI50: > 100 µM (inactive)
TK-10
  GI50: > 100 µM (inactive)
MOLT-4
  GI50: > 100 µM (inactive)
NCI-H522
  GI50: > 100 µM (inactive)
SF-268
  GI50: > 100 µM (inactive)
MCF7
  GI50: > 100 µM (inactive)
OVCAR-5
  GI50: > 100 µM (inactive)
UACC-62
  GI50: > 100 µM (inactive)
PC-3
  GI50: > 100 µM (inactive)
HT-29
  GI50: > 100 µM (inactive)
CAKI-1
  GI50: > 100 µM (inactive)
RPMI-8226
  GI50: > 100 µM (inactive)
NCI-H226
  GI50: > 100 µM (inactive)
A549
  GI50: > 100 µM (inactive)
HOP-92
  GI50: > 100 µM (inactive)
SN12C
  GI50: > 100 µM (inactive)
EKVX
  GI50: > 100 µM (inactive)
SK-MEL-2
  GI50: > 100 µM (inactive)
786-0
  GI50: > 100 µM (inactive)
NCI/ADR-RES
  GI50: > 100 µM (inactive)
HCC 2998
  GI50: > 100 µM (inactive)
IGROV-1
  GI50: > 100 µM (inactive)
BT-549
  GI50: > 100 µM (inactive)
U-251
  GI50: > 100 µM (inactive)
MDA-MB-231
  GI50: > 100 µM (inactive)
SW-620
  GI50: > 100 µM (inactive)
HCT-116
  GI50: > 100 µM (inactive)
MDA-MB-435
  GI50: > 100 µM (inactive)
Malme-3M
  GI50: > 100 µM (inactive)
MDA-N
  GI50: > 100 µM (inactive)
UACC-257
  GI50: > 100 µM (inactive)
RXF 393
  GI50: > 100 µM (inactive)
SNB-75
  GI50: > 100 µM (inactive)
OVCAR-8
  GI50: > 100 µM (inactive)
SF-539
  GI50: > 100 µM (inactive)
SK-MEL-28
  GI50: > 100 µM (inactive)
LOX IMVI
  GI50: > 100 µM (inactive)
UO-31
  GI50: > 100 µM (inactive)
M14
  GI50: > 100 µM (inactive)
SNB-19
  GI50: > 100 µM (inactive)
SK-MEL-5
  GI50: > 100 µM (inactive)
KM12
  GI50: > 100 µM (inactive)
Hs-578T
  GI50: > 100 µM (inactive)
SK-OV-3
  GI50: > 100 µM (inactive)
T47D
  GI50: > 100 µM (inactive)
HOP-62
  GI50: > 100 µM (inactive)
SR
  GI50: > 100 µM (inactive)
ACHN
  GI50: > 100 µM (inactive)
OVCAR-3
  GI50: > 100 µM (inactive)

## O=C1CSC(c2c(O)ccc3ccccc23)N1n1c(S)nnc(/C=C/c2c(O)ccc3ccccc23)c1=O (centres undefined)
HCT-15
  GI50: 327 nM
OVCAR-4
  GI50: 0.583 µM (active)
A498
  GI50: 2.76 µM (inactive)
K562
  GI50: 0.521 µM (active)
SF-295
  GI50: 6.71 µM (inactive)
DU-145
  GI50: 2.01 µM (inactive)
NCI-H460
  GI50: < 0.01 µM (active)
NCI-H23
  GI50: 1.98 µM (inactive)
TK-10
  GI50: 1.18 µM (inactive)
MOLT-4
  GI50: 17.9 µM (inactive)
NCI-H522
  GI50: 1.14 µM (inactive)
SF-268
  GI50: 0.771 µM (active)
CCRF-CEM
  GI50: 244 nM (active)
MCF7
  GI50: 0.451 µM (active)
OVCAR-5
  GI50: 1.99 µM (inactive)
HL-60
  GI50: 232 nM (active)
UACC-62
  GI50: 0.705 µM (active)
PC-3
  GI50: 3.18 µM (inactive)
HT-29
  GI50: 1.27 µM (inactive)
CAKI-1
  GI50: 0.489 µM (active)
RPMI-8226
  GI50: 1.26 µM (inactive)
A549
  GI50: 1.32 µM (inactive)
HOP-92
  GI50: 16.3 µM (inactive)
SN12C
  GI50: 0.752 µM (active)
EKVX
  GI50: 6.15 µM (inactive)
SK-MEL-2
  GI50: 1.17 µM (inactive)
786-0
  GI50: 0.662 µM (active)
NCI/ADR-RES
  GI50: 0.851 µM (active)
HCC 2998
  GI50: 1.11 µM (active)
IGROV-1
  GI50: 2.28 µM (inactive)
BT-549
  GI50: 0.908 µM (active)
U-251
  GI50: 1.33 µM (inactive)
MDA-MB-231
  GI50: 0.63 µM (active)
SW-620
  GI50: 0.753 µM (active)
HCT-116
  GI50: 0.359 µM (active)
MDA-MB-435
  GI50: 0.966 µM (active)
Malme-3M
  GI50: 2.22 µM (inactive)
MDA-N
  GI50: 4.05 µM (inactive)
UACC-257
  GI50: 1.43 µM (inactive)
RXF 393
  GI50: 1.45 µM (inactive)
SNB-75
  GI50: 1.5 µM (inactive)
OVCAR-8
  GI50: 0.467 µM (active)
LOX IMVI
  GI50: 1.44 µM (inactive)
UO-31
  GI50: 0.92 µM (active)
M14
  GI50: 0.935 µM (active)
SNB-19
  GI50: 1.69 µM (inactive)
Hs-578T
  GI50: 44.4 µM (inactive)
T47D
  GI50: 0.59 µM (active)
HOP-62
  GI50: 4.84 µM (inactive)
SR
  GI50: 0.51 µM (active)
ACHN
  GI50: 0.466 µM (active)
OVCAR-3
  GI50: 0.387 µM (active)
